According to ChEMBL document CHEMBL3817726, “Chemically Diverse Group I p21-Activated Kinase (PAK) Inhibitors Impart Acute Cardiovascular Toxicity with a Narrow Therapeutic Window” (J Med Chem, 2016):
pKi: −log10 of the molar value. Converted amounts (≈) assume the structure as drawn.

Experiments:
[1] = Apparent permeability across apical to basolateral side in MDCK cells at 10 uM after 60 mins; assay type: ADME, cell-based, Canis lupus familiaris; conditions: dog
[2] = target: Serine/threonine-protein kinase PAK 1 (Homo sapiens, UniProt Q13153); assay: Inhibition of human recombinant N-terminal 6-His-tagged PAK1 kinase domain (249 to 545 residues) expressed in Escherichia coli BL21(DE3) assessed as phosphorylation of coumarin labeled FRET peptide substrate at Ser/Thr19 preincubated for 10 mins followed by ATP addition measured after 60 mins by Z'-LYTE assay
[3] = Lipophilicity, log D of the compound at pH 7.4; assay type: physicochemical; conditions: buffer
[4] = target: Serine/threonine-protein kinase PAK 1/PAK 2 (Homo sapiens, UniProt Q13177+Q13153); assay: Inhibition of PAK1/2 in human EBC1 cells assessed as phosphorylation of MEK1 at serine 298 after 2 hrs by HTRF assay; assay type: cell-based
[5] = Kinetic solubility of the compound at pH 7.4; assay type: physicochemical; conditions: buffer, read-out: Kinetic_solubility
[6] = Efflux ratio of permeability across basolateral to apical side over apical to basolateral side in MDCK cells at 10 uM after 60 mins; assay type: ADME, cell-based, Canis lupus familiaris; conditions: dog
Homo sapiens [7] = species on record: Homo sapiens; assay: Selectivity for human recombinant N-terminal 6-His-tagged PAK1 kinase domain (249 to 545 residues) over LCK (unknown origin)
Homo sapiens [8] = species on record: Homo sapiens; assay: Selectivity for human recombinant N-terminal 6-His-tagged PAK1 kinase domain (249 to 545 residues) over human recombinant PAK4 kinase domain
[9] = Apparent permeability across basolateral to apical side in MDCK cells at 10 uM after 60 mins; assay type: ADME, cell-based, Canis lupus familiaris; conditions: dog

Serine/threonine-protein kinase PAK 1, sequence (Q13153 whole entry, the tested form may be a part): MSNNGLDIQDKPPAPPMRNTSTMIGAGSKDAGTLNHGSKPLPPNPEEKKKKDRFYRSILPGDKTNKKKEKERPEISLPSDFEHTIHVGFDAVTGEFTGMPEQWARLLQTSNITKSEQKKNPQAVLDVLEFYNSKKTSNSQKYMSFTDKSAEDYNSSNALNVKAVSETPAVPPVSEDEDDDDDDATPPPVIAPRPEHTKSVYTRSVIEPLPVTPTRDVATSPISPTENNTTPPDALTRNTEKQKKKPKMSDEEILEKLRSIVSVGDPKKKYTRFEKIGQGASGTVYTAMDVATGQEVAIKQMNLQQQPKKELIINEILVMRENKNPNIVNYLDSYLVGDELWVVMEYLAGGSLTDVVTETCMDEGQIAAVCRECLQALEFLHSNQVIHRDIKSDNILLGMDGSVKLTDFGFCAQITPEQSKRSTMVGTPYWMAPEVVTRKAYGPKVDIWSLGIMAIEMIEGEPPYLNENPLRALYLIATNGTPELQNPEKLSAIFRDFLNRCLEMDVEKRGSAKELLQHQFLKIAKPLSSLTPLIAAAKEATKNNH

| SMILES | Papp A→B at 1 h, 10 µM [1] | pKi [2] | logD [3] | IC50 [4] | solubility kinetic [5] | efflux ratio at 1 h, 10 µM [6] | Selectivity ratio (Homo sapiens [7]) | Selectivity ratio (Homo sapiens [8]) | Papp B→A at 1 h, 10 µM [9] |
| --- | --- | --- | --- | --- | --- | --- | --- | --- | --- |
| CNc1ncc2cc(-c3ccc(-n4cccc(C)c4=O)cc3Cl)c(=O)n(CCO)c2n1 | 5.5 ×10⁻⁶ cm/s | 7.77 | 2.2 | 930 nM | 15 µM (≈ 6.57 µg/mL) | 2.8 | 63 | – | – |
| CNc1ncc2cc(-c3ccc(N4CCCC4=O)cc3Cl)c(=O)n(CCCN)c2n1 | – | 7.05 | – | – | – | – | 25 | > 33 | – |
| Cc1nccn(-c2ccc(-c3cc4cnc(NC5COC5)nc4n(CC4CCNCC4(F)F)c3=O)c(Cl)c2)c1=O (single isomer, unassigned; enantiomer 2) | – | 7.92 | – | – | – | – | – | – | – |
| CNc1ncc2cc(-c3ccc(-n4ccccc4=O)cc3Cl)c(=O)n(CCCN)c2n1 | – | 7.44 | – | – | – | – | 86 | > 82 | – |
| CNc1ncc2cc(-c3ccc(-n4cccc(C)c4=O)cc3Cl)c(=O)n(CCOC)c2n1 | 27 ×10⁻⁶ cm/s | 7.89 | 2.2 | 450 nM | 80 µM (≈ 36.2 µg/mL) | 0.5 | 38 | – | – |
| CNc1ncc2cc(-c3ccccc3Cl)c(=O)n(CCCN)c2n1 | – | 6.42 | – | – | – | – | 0.4 | > 7.6 | – |
| CNc1ncc2cc(-c3ccc(-n4ccn(C)c4=O)cc3Cl)c(=O)n(CCCN)c2n1 | – | 7.89 | – | – | – | – | 76 | > 232 | – |
| CNc1ncc2cc(-c3ccc(N4CCN(C)C4=O)cc3Cl)c(=O)n(CCCN)c2n1 | – | – | – | – | – | – | 10 | > 52 | – |

Second part, the compound after the results:

| Papp A→B at 1 h, 10 µM [1] | pKi [2] | logD [3] | IC50 [4] | solubility kinetic [5] | efflux ratio at 1 h, 10 µM [6] | Selectivity ratio (Homo sapiens [7]) | Selectivity ratio (Homo sapiens [8]) | Papp B→A at 1 h, 10 µM [9] | SMILES |
| --- | --- | --- | --- | --- | --- | --- | --- | --- | --- |
| – | 8.34 | – | – | – | – | 429 | > 642 | – | CNc1ncc2cc(-c3ccc(-n4ccnc(C)c4=O)cc3Cl)c(=O)n(CCCN)c2n1 |
| 0.2 ×10⁻⁶ cm/s | 8.36 | 0.63 | 88 nM | 71 µM (≈ 36 µg/mL) | 26 | 86 | – | – | CNc1ncc2cc(-c3ccc(-n4cccc(C)c4=O)cc3Cl)c(=O)n(CCOC3CN(C)C3)c2n1 |
| 9.7 ×10⁻⁶ cm/s | 8.57 | 0.9 | 78 nM | 115 µM (≈ 60.6 µg/mL) | 1.3 | 20 | – | – | CNc1ncc2cc(-c3ccc(-n4cccc(C)c4=O)cc3Cl)c(=O)n(CC3CCNCC3(F)F)c2n1 (racemic) |
| 0.1 ×10⁻⁶ cm/s | 8.46 | 0.05 | 602 nM | 82 µM (≈ 37 µg/mL) | 4.3 | 221 | 517 | 0.33 ×10⁻⁶ cm/s | CNc1ncc2cc(-c3ccc(-n4cccc(C)c4=O)cc3Cl)c(=O)n(CCCN)c2n1 |
| – | 8.48 | – | – | – | – | 53 | 449 | – | CNc1ncc2cc(-c3ccc(-c4cccc(C)n4)cc3Cl)c(=O)n(CCCN)c2n1 |
| 7.6 ×10⁻⁶ cm/s | 8.23 | 1.9 | 290 nM | 38 µM (≈ 18.8 µg/mL) | 2 | 158 | – | – | COCCn1c(=O)c(-c2ccc(-n3cccc(C)c3=O)cc2Cl)cc2cnc(NC3COC3)nc21 |
| 8.4 ×10⁻⁶ cm/s | 8.05 | 1.8 | 460 nM | 51 µM (≈ 24.8 µg/mL) | 1.8 | 56 | – | 15.4 ×10⁻⁶ cm/s | CNc1ncc2cc(-c3ccc(-n4cccc(C)c4=O)cc3Cl)c(=O)n(CC(F)(F)CN)c2n1 |
| 28 ×10⁻⁶ cm/s | 8.10 | 2.1 | 340 nM | 2.5 µM (≈ 1.05 µg/mL) | 0.4 | 53 | – | – | CCn1c(=O)c(-c2ccc(-n3cccc(C)c3=O)cc2Cl)cc2cnc(NC)nc21 |
| – | 8.17 | – | – | – | – | 282 | > 443 | – | CNc1ncc2cc(-c3ccc(-n4cncc(C)c4=O)cc3Cl)c(=O)n(CCCN)c2n1 |
